Measured values published in ChEMBL document CHEMBL5729586, “Inhibitors of LRRK2 kinase” (2023).

molecular target: Leucine-rich repeat serine/threonine-protein kinase 2 (Homo sapiens, UniProt Q5S007); test: LRRK2 Enzymatic Assay: LRRKtide substrate (peptide sequence RLGRDKYKTLRQIRQ, derived from human ezrin [amino acids 561-573], moesin [amino acids 539-553] and radixin [amino acids 558-570], obtained from SignalChem, catalogue #L10-58, reconstituted in 20 mM Tris-HCl at pH 7.5 to a final concentration of 1 mg/mL, assay concentration 20 μM) and recombinant human LRRK2 (catalytic domain only [amino acids 970-2527], GST-tagged, expressed in insect cells, obtained from ThermoFisher Scientific, catalogue #PV4874, 0.35 mg/mL, assay concentration 30 nM) were mixed in assay buffer (20 mM Hepes pH 7.5, 10 mM MgCl, 1 mM EGTA, 0.02% Brij35, 0.02 mg/ml BSA, 0.1 mM NaVO, 2 mM DTT, 1% DMSO). Compounds of interest (in DMSO, serial 3-fold dilution from 10 μM to 0.5 nM) or control (1% DMSO) were dispensed into the kinase reaction mixture by Acoustic technology (Echo550; nanoliter range). After incubation at room temperature for 20 minutes, the kinase reaction was initiated by addition of [P]-ATP (Specific activity 10 μCi/μl) and the mixture was incubated at room temperature for 2 hours. The reaction was then stopped by spotting the reaction mixture on strips of phosphocellulose P81 paper. Following washing, the radioactivity of the P81 paper was measured and kinase activity data were expressed as the percent remaining kinase activity in test samples compared to vehicle (dimethyl sulfoxide) reactions.
Sequence (Q5S007 whole entry, the tested form may be a part): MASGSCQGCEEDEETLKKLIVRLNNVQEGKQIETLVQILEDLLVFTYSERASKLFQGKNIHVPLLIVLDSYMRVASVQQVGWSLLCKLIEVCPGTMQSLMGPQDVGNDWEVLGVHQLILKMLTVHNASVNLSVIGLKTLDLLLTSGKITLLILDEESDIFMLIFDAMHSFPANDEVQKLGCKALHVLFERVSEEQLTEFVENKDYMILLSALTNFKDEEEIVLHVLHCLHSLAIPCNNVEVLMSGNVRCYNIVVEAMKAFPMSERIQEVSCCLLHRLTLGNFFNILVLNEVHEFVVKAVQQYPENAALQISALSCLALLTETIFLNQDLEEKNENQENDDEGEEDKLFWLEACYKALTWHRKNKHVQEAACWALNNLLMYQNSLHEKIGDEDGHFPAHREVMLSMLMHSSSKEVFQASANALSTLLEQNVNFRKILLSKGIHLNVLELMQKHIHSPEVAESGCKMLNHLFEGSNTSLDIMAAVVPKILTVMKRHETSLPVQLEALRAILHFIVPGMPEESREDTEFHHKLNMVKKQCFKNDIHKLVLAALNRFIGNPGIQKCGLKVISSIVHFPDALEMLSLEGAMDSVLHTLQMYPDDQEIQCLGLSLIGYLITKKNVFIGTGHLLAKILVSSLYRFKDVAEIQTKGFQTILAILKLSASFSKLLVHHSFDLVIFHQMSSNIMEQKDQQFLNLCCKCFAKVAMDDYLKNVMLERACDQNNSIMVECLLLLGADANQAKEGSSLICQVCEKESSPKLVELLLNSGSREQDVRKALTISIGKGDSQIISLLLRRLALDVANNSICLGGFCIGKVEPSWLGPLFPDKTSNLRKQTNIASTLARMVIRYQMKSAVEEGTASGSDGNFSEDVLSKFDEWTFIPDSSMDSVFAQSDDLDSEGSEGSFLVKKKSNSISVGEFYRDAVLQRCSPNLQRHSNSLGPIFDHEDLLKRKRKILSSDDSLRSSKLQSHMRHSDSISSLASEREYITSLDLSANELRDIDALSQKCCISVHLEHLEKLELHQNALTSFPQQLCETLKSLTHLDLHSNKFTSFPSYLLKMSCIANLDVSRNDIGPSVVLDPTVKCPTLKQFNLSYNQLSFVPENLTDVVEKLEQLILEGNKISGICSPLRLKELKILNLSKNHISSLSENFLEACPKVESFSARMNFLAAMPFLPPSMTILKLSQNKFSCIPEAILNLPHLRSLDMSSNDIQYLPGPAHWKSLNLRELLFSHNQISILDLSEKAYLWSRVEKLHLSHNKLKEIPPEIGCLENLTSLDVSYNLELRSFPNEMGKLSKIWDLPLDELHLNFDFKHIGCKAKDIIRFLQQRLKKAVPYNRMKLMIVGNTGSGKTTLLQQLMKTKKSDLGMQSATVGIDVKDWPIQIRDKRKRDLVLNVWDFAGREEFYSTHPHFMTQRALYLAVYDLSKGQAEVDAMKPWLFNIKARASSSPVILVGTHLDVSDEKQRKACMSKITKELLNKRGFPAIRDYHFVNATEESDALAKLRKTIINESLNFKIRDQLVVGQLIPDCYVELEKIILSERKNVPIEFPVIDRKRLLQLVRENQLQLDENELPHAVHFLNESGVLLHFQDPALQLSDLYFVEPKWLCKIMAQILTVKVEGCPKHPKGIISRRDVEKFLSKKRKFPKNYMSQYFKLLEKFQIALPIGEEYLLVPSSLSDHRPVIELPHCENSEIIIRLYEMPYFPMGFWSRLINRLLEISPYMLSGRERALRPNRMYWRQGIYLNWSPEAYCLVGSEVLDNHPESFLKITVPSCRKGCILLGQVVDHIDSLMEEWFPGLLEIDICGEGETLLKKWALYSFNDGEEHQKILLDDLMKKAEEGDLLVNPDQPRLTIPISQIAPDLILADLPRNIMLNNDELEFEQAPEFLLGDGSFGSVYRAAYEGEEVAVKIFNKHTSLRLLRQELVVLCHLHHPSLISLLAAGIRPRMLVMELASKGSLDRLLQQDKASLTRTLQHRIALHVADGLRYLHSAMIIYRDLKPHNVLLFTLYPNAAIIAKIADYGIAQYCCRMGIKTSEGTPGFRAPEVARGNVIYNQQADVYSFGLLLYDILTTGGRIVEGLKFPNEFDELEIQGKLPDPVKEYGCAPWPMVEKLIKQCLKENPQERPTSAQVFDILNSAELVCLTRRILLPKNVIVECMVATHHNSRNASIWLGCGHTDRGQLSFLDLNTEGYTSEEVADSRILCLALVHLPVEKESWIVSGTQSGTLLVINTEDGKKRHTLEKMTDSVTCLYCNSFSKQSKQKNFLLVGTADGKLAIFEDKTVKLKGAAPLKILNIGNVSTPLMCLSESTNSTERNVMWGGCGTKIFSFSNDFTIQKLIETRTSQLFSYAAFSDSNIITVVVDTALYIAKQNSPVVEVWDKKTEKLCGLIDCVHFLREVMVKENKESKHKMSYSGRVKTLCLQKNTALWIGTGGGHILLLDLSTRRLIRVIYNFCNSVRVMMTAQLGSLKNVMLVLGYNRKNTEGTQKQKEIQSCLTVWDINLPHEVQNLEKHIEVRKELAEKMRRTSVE

Compound	IC50 [nM]
CC(N[C@H]1CC[C@H](COc2ccnc(Nc3ccc(N4CCOCC4)cc3)n2)CC1)C(F)(F)F (stereo partly drawn)	> 400
CN[C@H]1CC[C@H](COc2nc(Nc3cnn(C(C)C)c3)ncc2Cl)CC1	< 50
CC(=O)N[C@H]1CC[C@H](COc2nc(Nc3cnn(CCO)c3)ncc2F)CC1	< 50
Cc1nn(C(C)(C)C#N)cc1Nc1ncc(F)c(OCC2CCNCC2(F)F)n1 (stereo not drawn)	< 50
CN[C@H]1CC[C@H](COc2nc(Nc3cn(C(C)(C)C#N)nc3C)ncc2C2CC2)CC1	< 50
FC(F)CN[C@H]1CC[C@H](COc2nc(Nc3ccc(N4CCOCC4)cc3)ncc2Cl)CC1	< 50
CC(=O)N[C@H]1CC[C@H](COc2nc(Nc3ccc(N4C[C@@H](C)O[C@@H](C)C4)cc3)ncc2C)CC1	< 50
CC(=O)N[C@H]1CC[C@@H](COc2nc(Nc3ccc(N4C[C@@H](C)O[C@@H](C)C4)cc3)ncc2F)C1	< 50
